From PubChem BioAssay (NCI)
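Grown in 96-well plates, cells were treated for 48 hours with each compound at five concentrations. Insufficient inhibition: endpoint recorded as highest concentration tested. TGI marks complete inhibition of growth.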

Legend:
Assay in all cases: growth of human tumour cells (NCI), 48 h
786-0 renal = system: 786-0 renal
A549 NSCLC = system: A549 NSCLC
ACHN renal = system: ACHN renal
CAKI-1 renal = system: CAKI-1 renal
CCRF-CEM leukemia = system: CCRF-CEM leukemia
COLO 205 colon = system: COLO 205 colon
DLD-1 colon = system: DLD-1 colon
DMS 114 small cell lung = system: DMS 114 small cell lung
DMS 273 small cell lung = system: DMS 273 small cell lung
EKVX NSCLC = system: EKVX NSCLC
HCT-116 colon = system: HCT-116 colon
HL-60(TB) leukemia = system: HL-60(TB) leukemia
HOP-18 NSCLC = system: HOP-18 NSCLC
HOP-62 NSCLC = system: HOP-62 NSCLC
HOP-92 NSCLC = system: HOP-92 NSCLC
HT29 colon = system: HT29 colon
IGROV1 ovarian = system: IGROV1 ovarian
K-562 leukemia = system: K-562 leukemia
KM12 colon = system: KM12 colon
KM20L2 colon = system: KM20L2 colon
LOX IMVI melanoma = system: LOX IMVI melanoma
LXFL 529 NSCLC = system: LXFL 529 NSCLC
M14 melanoma = system: M14 melanoma
M19-MEL melanoma = system: M19-MEL melanoma
MOLT-4 leukemia = system: MOLT-4 leukemia
NCI-H460 lung = system: NCI-H460 lung
NCI-H522 lung = system: NCI-H522 lung
OVCAR-3 ovarian = system: OVCAR-3 ovarian
OVCAR-4 ovarian = system: OVCAR-4 ovarian
OVCAR-5 ovarian = system: OVCAR-5 ovarian
OVCAR-8 ovarian = system: OVCAR-8 ovarian
RPMI-8226 leukemia = system: RPMI-8226 leukemia
RXF 393 renal = system: RXF 393 renal
SF-268 CNS = system: SF-268 CNS
SF-295 CNS = system: SF-295 CNS
SK-MEL-2 melanoma = system: SK-MEL-2 melanoma
SK-MEL-28 melanoma = system: SK-MEL-28 melanoma
SK-MEL-5 melanoma = system: SK-MEL-5 melanoma
SK-OV-3 ovarian = system: SK-OV-3 ovarian
SN12C renal = system: SN12C renal
SNB-19 CNS = system: SNB-19 CNS
SNB-75 CNS = system: SNB-75 CNS
SNB-78 CNS = system: SNB-78 CNS
SR leukemia = system: SR leukemia
SW-620 colon = system: SW-620 colon
TK-10 renal = system: TK-10 renal
U251 CNS = system: U251 CNS
UACC-257 melanoma = system: UACC-257 melanoma
UACC-62 melanoma = system: UACC-62 melanoma
UO-31 renal = system: UO-31 renal
XF 498 CNS = system: XF 498 CNS
A498 renal = system: A498 renal
HCC-2998 colon = system: HCC-2998 colon
MALME-3M melanoma = system: MALME-3M melanoma
NCI-H226 lung = system: NCI-H226 lung
NCI-H23 lung = system: NCI-H23 lung
SF-539 CNS = system: SF-539 CNS

Measured: TGI

C=C/C=C/NC(=O)OCc1ccccc1
not listed: A498 renal | HCC-2998 colon | MALME-3M melanoma | NCI-H226 lung | NCI-H23 lung | SF-539 CNS
> 100 µM: all other assays above

CN(C(=O)C12C3C4C1C1C2C3C41C(N)=O)C(C)(C)C (stereo not drawn)
not listed: DLD-1 colon | HOP-18 NSCLC | HOP-62 NSCLC | KM20L2 colon | LOX IMVI melanoma | RPMI-8226 leukemia | RXF 393 renal | SK-MEL-2 melanoma | U251 CNS | UACC-257 melanoma
> 100 µM: all other assays above
